These results are taken from the SangsterLogP compilation.

A short description of data set [1]: method code SF-AS, from DOI: 10.1016/s0021-9673(01)89522-4.
A short description of data set [2]: method code SF-GLC, from DOI: 10.1023/a:1015803202857, PMID: 2395795.
A short description of data set [3]: method code SF-HPLC, from DOI: 10.2174/1871523013666141114203105, PMID: 25403255. The note with it: pH 7.4.
Data set [4] is described as follows: method code SF-AS, from DOI: 10.1002/jps.2600830406, PMID: 7913964.
Data set [5] is described as follows: method code SF-AS, from DOI: 10.1021/jm9807104, PMID: 10514282. The note with it: pH 7.0.
Data set [6] in a line: method code SF, from DOI: 10.1016/j.bmcl.2009.04.053, PMID: 19409782.
Experiment in data set [7]: not given
This is another data set of the same source.

For data set [8] the following is noted: pH 7.4.
Data set [9] is described as follows: method code SF-AS, from DOI: 10.1021/jf970979g, PMID: 10554305.
Data set [10] is described as follows: from Courrière, P.; Paubel, J.P.; Nivière, P.; Foussard-Blaspin, O. (1978). Structure-activity study in a series of local anesthetic agents. I. Physicochemical properties and molecular orbital study. ….
The nature of data set [11]: method code SF-ESR, from DOI: 10.1515/znc-1987-7-832, PMID: 2961152.
Data set [12] in a line: method code SF-RC, from DOI: 10.1016/j.nucmedbio.2016.03.005, PMID: 27179748. To be noted: pH 7.4.
The nature of data set [13]: method code SF-AS, from DOI: 10.1248/cpb.45.1287, PMID: 9301027.
Experiment in data set [14]: not given
The source holds these as a separate data set.

The nature of data set [15]: method code SF-HPLC, from DOI: 10.1023/a:1011018730459, PMID: 11451042.
Data set [16] in a line: method code SF-HPLC, from DOI: 10.3109/14756366.2013.845817, PMID: 24156741.
Data set [17] is described as follows: method code SF-RC/EN, from DOI: 10.1016/s0022-2275(20)42614-8, PMID: 2280184. The note with it: pH 1.0.
Data set [18] in a line: method code SF-HPLC, from DOI: 10.1016/s0969-8043(00)00269-4, PMID: 11200881. The note with it: pH 7.4.
Experiment in data set [19]: not given
This is another data set of the same source.

Experiment in data set [20]: not given
This is another data set of the same source.

Experiment in data set [21]: not given
This is another data set of the same source.

A short description of data set [22]: method code SF-HPLC, from DOI: 10.1016/0378-5173(89)90313-x. The note with it: pH 7.4.
A short description of data set [23]: method code SF-RC/EIA, from DOI: 10.1016/s0022-2275(20)42614-8, PMID: 2280184. The note with it: pH 1.0.
Experiment in data set [24]: not given
This is another data set of the same source.

The molecule `CC12CCC(O)CC1CCC1C2CCC2(C)C(C3=CC(=O)OC3)C(O)CC12O` (centres undefined) showed a log partition coefficient (logP) in [1] of 1.76.

Turning to `OC(CCN1CCCCC1)(c1ccccc1)C1CC2C=CC1C2` (centres undefined), in data set [2], the logP came out at 4.25.

Molecule `Cc1ccc(C(C)C)c(OC(=O)COC(=O)Cc2ccccc2Nc2c(Cl)cccc2Cl)c1` yielded a pH-dependent lipophilicity (logD) in data set [3] of 5.08.

As for `CC1CCC(C(C)C)C(OC(=O)COC(=O)Cc2ccccc2Nc2c(Cl)cccc2Cl)C1` (centres undefined), the logD in data set [3] was 5.07.

Take `O=C1C2C3CCC(CC3)C2C(=O)N1CCCCN1CCN(c2ccc3ccccc3n2)CC1` (centres undefined): the logP worked out at 4.1.

Turning to `COC(=O)[C@@H]1C[C@H]2[C@@H]3CCC4=CC(=O)C=C[C@]4(C)[C@H]3[C@@H](O)C[C@]2(C)[C@H]1C(=O)CO`, in [4], the logP turned out to be 1.7.

In [1], `CC12CCC(O)CC1CCC1C2CCC2(C)C(C3=CC(=O)OC3)CCC12O` (centres undefined) registered a logP of 2.64.

In data set [5], `COC(=O)C(C)NP(=O)(Oc1ccc(C)cc1)OC1C=CC(n2cc(C)c(=O)[nH]c2=O)O1` (centres undefined) registered a logD of 1.19.

`O=[N+]([O-])N=C1N(Cc2ccc(Cl)nc2)CCN1Cc1ccc2c(c1)OCCOCCOCCOCCOCCO2` had a lipophilicity (logP) in data set [6] of -0.55.

Regarding `COC(=O)C1=C(C)NC(C)=C(C(=O)OCCN2CCN(C(c3ccccc3)c3ccccc3)CC2)C1c1cccc([N+](=O)[O-])c1` (centres undefined), the logP in data set [7] was 5.2.

For `COc1cc([N+](=O)[O-])cc(C=CC(=O)N2CCC(n3c(=O)[nH]c4ccccc43)CC2)c1OC`, in data set [8], the pH-dependent lipophilicity (logD) was determined as 3.

For `CC(NC1=CC(=O)C(NC(C)C(O)c2ccccc2)=CC1=O)C(O)c1ccccc1` (centres undefined), the logP in [9] was found to be 1.42.

In data set [10], `Cc1cccc(C)c1N(CCCN(C)C)C(=O)/C=C/c1ccccc1` displayed a logP of 5.27.

Take `CC1(C)CC(N(CCN(C(=O)N(CCCl)N=O)C2CC(C)(C)N(O)C(C)(C)C2)C(=O)N(CCCl)N=O)CC(C)(C)N1O`: the logP in data set [11] stood at 2.35.

On to `COc1ccc(S(=O)(=O)N(Cc2ccc(OCCOCCOCCOCCOCc3cn(CCF)nn3)cc2)[C@@H](C(=O)NO)C(C)C)cc1`, for which the log distribution coefficient (logD) in data set [12] was determined as 1.24.

Consider `CCOCCn1c(N2CCCN(CCCCn3cccn3)CC2)nc2ccccc21`, for which, in [13], the logP turned out to be 3.99.

Turning to `C#C[C@@]1(O)[C@@H](F)C[C@H]2[C@@H]3CCc4cc(O)ccc4[C@H]3[C@@H](CC)C[C@@]21C`, the lipophilicity (logP) in data set [14] worked out at 4.12.

For the molecule `CCOC(=O)C1=C(C)NC(C)=C(C(=O)OCC)C1c1ccccc1/C=C/C(=O)OC(C)(C)C`, in data set [7], the logP was found to be 4.43.

As to `COc1cc(C(=O)OCC2OC(n3cnc4c(NC5CCCC5)ncnc43)C(O)C2O)cc(OC)c1OC` (centres undefined), the logP in data set [15] was 2.27.

Take `C#CCn1cc(C(=O)NC(c2ccccc2)C(O)C(=O)Nc2ccccc2)c(=O)c2cc(F)c(Cl)nc21` (centres undefined): the lipophilicity (logP) in [16] was determined as 5.55.

In data set [17], `C[C@H](CCC(=O)O)[C@H]1CC[C@H]2[C@@H]3[C@H](O)C[C@@H]4C[C@H](O)CC[C@]4(C)[C@H]3C[C@H](O)[C@]12C` yielded a log distribution coefficient (logD) of 2.02.

In data set [18], `CNc1cccc(NC(=O)N[C@@H]2N=C(c3ccccn3)c3ccccc3N(CC(=O)C(C)(C)C)C2=O)c1` had a log distribution coefficient (logD) of 2.68.

The molecule `CCC1C[C@H]2[C@@H]3CCC4=CC(=O)CC[C@@H]4[C@H]3CC[C@]2(C)[C@H]1C(=O)CF` (some centres undefined) displayed a logP in data set [19] of 4.41.

For the molecule `C#C[C@]1(O)CC[C@H]2[C@@H]3CCc4cc(O)ccc4[C@H]3[C@@H](CC)C[C@@]21C`, in [14], the logP worked out at 4.28.

Consider `O=C1CC2(CCCC2)CC(=O)N1CCCCN1CCN(c2ccc3ccccc3n2)CC1`, for which the logP was found to be 4.23.

For `COc1ccc(S(=O)(=O)N(Cc2cn(CCOCCOCCOCCF)nn2)C(C(=O)NO)C(C)C)cc1` (centres undefined), the logD in data set [12] was found to be 0.23.

`C[C@H](CN1CCOCC1)C(C(=O)N1CCCC1)(c1ccccc1)c1ccccc1` yielded a logP in data set [20] of 3.61.

Molecule `CCOC(=O)C1(c2ccccc2)CCN(CCC(O)c2ccccc2)CC1` (centres undefined) gave a logP in data set [20] of 4.04.

With `CC(C)(C)NCC(COc1nsnc1N1CCOCC1)OC(=O)c1ccccc1COC(=O)c1ccccc1` (centres undefined), in data set [21], the logP was found to be 4.37.

In the case of `COC(=O)C(C)NP(=O)(OCC1C=CC(n2cc(C)c(=O)[nH]c2=O)O1)Oc1ccc(OC(C)=O)cc1` (centres undefined), the pH-dependent lipophilicity (logD) in data set [5] came out at 1.01.

Turning to `CN1C=CCC(C(=O)NCCCOC(=O)CCCc2ccc(N(CCCl)CCCl)cc2)=C1`, in [22], the pH-dependent lipophilicity (logD) is 2.75.

Turning to `C[C@H](CCC(=O)O)C1CCC2C3C(CC[C@@]21C)[C@@]1(C)CC[C@@H](O)CC1C[C@H]3O` (some centres undefined), the logD in [17] is 3.28.

For the molecule `CCOCCn1c(CN2CCCN(CCCCn3cccn3)CC2)nc2ccccc21`, the logP in data set [13] was determined as 4.61.

With `CC1(C)CC(N(C(=O)N(CCCl)N=O)C2CC(C)(C)N(O)C(C)(C)C2)CC(C)(C)N1O`, in data set [11], the logP worked out at 1.63.

For the molecule `CC(NC1=CC(=O)C(NC(C)c2ccccc2)=CC1=O)c1ccccc1` (centres undefined), in data set [9], the logP was 0.98.

In data set [23], `C[C@H](CCC(=O)NCC(=O)O)[C@H]1CC[C@H]2[C@@H]3[C@H](O)C[C@@H]4C[C@H](O)CC[C@]4(C)[C@H]3CC[C@]12C` yielded a logD of 2.12.

Molecule `CCCCCCCC(=O)OCC1OC(n2cnc3c(NC4CCCC4)ncnc32)C(O)C1O` (centres undefined) had a log partition coefficient (logP) in data set [15] of 3.91.

`CN1C=CCC(C(=O)NCC(OC(=O)CCCc2ccc(N(CCCl)CCCl)cc2)c2ccccc2)=C1` (centres undefined): in data set [22], the logD stood at 2.29.

The molecule `Cc1cccc(C)c1N(CCCN(C)C)C(=O)Cc1ccccc1` came in with a logP in data set [10] of 4.9.

Molecule `COc1ccccc1N1CCN(CCN(C(=O)C2CCCCC2)c2ccccn2)CC1` showed a pH-dependent lipophilicity (logD) in [18] of 3.1.

Consider `CCC1C[C@H]2[C@@H]3CCC4=CC(=O)CC[C@@H]4[C@H]3CC[C@]2(C)C1C(=O)CO` (some centres undefined), for which, in data set [19], the log partition coefficient (logP) was 4.21.

In data set [21], `CCCCCCCC(=O)OC(CNC(C)(C)C)COc1nsnc1N1CCOCC1` (centres undefined) showed a logP of 4.66.

As to `C[C@H](CCC(=O)NCC(=O)O)[C@H]1CC[C@H]2[C@@H]3[C@H](O)C[C@@H]4C[C@H](O)CC[C@]4(C)[C@H]3C[C@H](O)[C@]12C`, the logD in [23] came to 1.65.

Regarding `O=C(C=Cc1cc([N+](=O)[O-])cc2c1OCO2)N1CCC2(CC1)C(=O)NCN2c1ccccc1`, in data set [8], the log distribution coefficient (logD) came out at 3.1.

Consider `O=C(CCCN1CCC(O)(c2ccc(Cl)cc2)CC1)c1ccc(F)cc1`, for which the log partition coefficient (logP) in data set [2] worked out at 3.23.

For `COC(=O)[C@@H]1C[C@H]2[C@@H]3CCC4=CC(=O)C=C[C@]4(C)[C@@]3(F)[C@@H](O)C[C@]2(C)[C@H]1C(=O)CO`, the log partition coefficient (logP) in data set [4] was determined as 1.78.

`O=[N+]([O-])N=C1N(Cc2ccc(Cl)nc2)CCN1Cc1ccc2c(c1)OCCOCCOCCOCCO2` yielded a logP in data set [6] of -0.82.

On to `COc1ccc(-c2oc3c(CC=C(C)C)c(O)cc(O)c3c(=O)c2O[C@@H]2O[C@@H](C)[C@H](O)[C@@H](O)[C@H]2O)cc1`, for which, in data set [24], the logP was found to be 5.11.

For `C#CCn1cc(C(=O)NC(C(=O)NC2CCCC2)c2ccccc2)c(=O)c2cc(F)c(Cl)nc21` (centres undefined), in [16], the log partition coefficient (logP) is 6.22.

In general, logP refers to a log measure of how a compound divides between an organic and an aqueous phase. The term logD denotes lipophilicity at a set pH, counting ionised and neutral species.
